Assay results reported in article PMC10301432, “Antiplasmodial, Trypanocidal, and Genotoxicity In Vitro Assessment of New Hybrid α,α-Difluorophenylacetamide-statin Derivatives” (Pharmaceuticals, 2023).
“Also recorded” adds a separate entry of the source. Read-outs that look alike come from different tables or passages of the source.

Tests used:
[1] = test system: Salmonella enterica serovar Typhimurium TA98; assay: Salmonella/microsome assay, TA98
Protocol: (§1) Salmonella enterica serovar Typhimurium (S. typhimurium) strains TA97, TA98, TA100, TA104 and TA102 from the authors’ stock were used as described in the mutagenicity assay.
(§2) To determine the cytotoxic effects, after 30 min pre-incubation, the assay mixtures were diluted in 0.9% NaCl (w/v) to obtain a suspension containing 2 × 10^2 cells/mL. […] The plates were then incubated at 37 °C for 24 h and the colonies counted. All the experiments were conducted in triplicate and were repeated at least twice. Statistical differences between the groups were analyzed by a two-way ANOVA (p < 0.05) and Tukey’s post hoc test.

[2] = test system: CHO-K1 and HepG2 cell lineages; type: cell-based
Protocol: Fresh HepG2 and CHO-K1 cells were seeded at the density of 1 × 10^5 cells/mL into 24-well plates (1 mL/per well). The compounds 13 (a–d) were then added to the medium to final concentrations of 500, 1000 and 2000 µM and incubation continued for 3 h or 24 h. DMSO 10% was used as the negative control, and, BaP (80 µM) for HepG2 and MMC (5 µM) for CHO-K1 were the positive controls. After exposure to the compounds, the cells were incubated for more than 24 h under growth conditions before quantification of the micronuclei and cytotoxicity. The cytogenetic studies were carried out in triplicate as described previously (see [51]). In order to determine the mitotic index and the number of cells with micronuclei, the medium was replaced by a cold methanol-glacial acetic acid (3:1) fixative for 30 min, and the cells then rinsed with distilled water for 2 min and air dried. The fixed cells were stained with 4,6-diamidino-2-phenylindole (DAPI) ([…]) dissolved in McIlvaine buffer (0.1 M citric acid plus 0.2 M Na2HPO4, pH 7.0) for 60 min, washed with McIlvaine buffer for 5 min, briefly rinsed with distilled water and mounted in glycerol. To determine the mitotic index and the number of cells with micronuclei, 1000 cells per well (3000 cells per concentration) were analyzed under a fluorescence microscope. The results for micronuclei were presented as the percentage of cells containing micronuclei in the 3000 cells/concentration group analyzed. Cells that glowed brightly and had homogenous nuclei were considered as having normal phenotypic morphology. Apoptotic nuclei were identified by the condensed chromatin at the periphery of the nuclear membrane or by fragmented nuclear body morphology. […] Once again, 3000 cells were counted and the percentage of viable cells was evaluated, discounting apoptotic and necrotic cells. Statistical differences between the groups were analyzed by two-way ANOVA (p < 0.01) and Tukey’s post hoc test.

[3] = test system: P. falciparum parasites (W2 clone) chloroquine-resistant; assay: Antiplasmodial activity, anti-HRPII assay; type: cell-based, Plasmodium falciparum; details: for SI: LC50 (HepG2)/EC50 (P. falciparum); for EC50: P. falciparum W2 clone, 24 h at 37 °C, read-out: EC50; for Antiplasmodial Activity: summarized outcome
Excerpt: P. falciparum W2 clone was maintained in continuous culture as previously described. […] Prior to testing, the ring-stage parasites were synchronized using sorbitol.
The test quantification was read at 450 nm on a spectrophotometer (SpectraMax340PC384, Molecular Devices Sunnyvale, CA, USA), and the drug activity was expressed as the half-maximal inhibitory concentration (EC50) compared to the drug-free controls using the curve-fitting software Origin 8.0 (OriginLab Corporation, Northampton, MA, USA).

[4] = test system: T. cruzi; assay: Trypanocidal in vitro phenotypic screening, overall outcome; type: cell-based, Trypanosoma cruzi; details: summarized outcome
Protocol: (§3) Bloodstream trypomastigote forms (BT) of the Y strain were obtained from infected albino Swiss mice at the peak of parasitemia, isolated by differential centrifugation and resuspended in DMEM to a parasite concentration of 10^7 cells/mL in the presence of 10% of mouse blood. This suspension (100 µL) was added in the same volume of 13 (a–d) and 14 (a–d) previously prepared at twice the desired final concentrations.
Tissue culture-derived trypomastigotes (Tulahuen strain expressing the E. coli β-galactosidase gene) were maintained in L929 cell lines and collected from the supernatant after 96 h of parasite infection, following previously established protocols. Briefly, after 24 h of L929 platting (4 × 10^3 cells/well), the cultures were incubated with trypomastigotes (10:1 parasite/host cell ratio) for 2 h at 37 °C. Then, the cell cultures were rinsed to remove non-internalized parasites and then further incubated for 24 h at 37 °C. Then the infected cultures were followed using two sequential protocols. […] After this period, 50 µL chlorophenol red glycoside (500 µM) in 0.5% Nonidet P40 was added to each well and the plate was incubated for more than 18 h at 37 °C, after which the absorbance was measured at 570 nm. Then, the compounds were next evaluated using dose–response assays in which Tulahuen-infected-L929 cells were exposed to different non-toxic concentrations of each compound (0–50 µM) and then after 96 h of incubation the same procedure was conducted as above reported. Controls with untreated and Bz-treated cells are run in parallel. The results were expressed as the percent difference in the reduction between treated and untreated cells.

[5] = test system: Salmonella enterica serovar Typhimurium TA104; assay: Salmonella/microsome assay, TA104
Protocol: as §1, §2

[6] = Salmonella/microsome assay, TA104; details: Salmonella enterica serovar Typhimurium
Protocol: as §1, §2

[7] = test system: HepG2 cells; assay: In vitro micronuclei assay, HepG2; type: cell-based, human; details: HepG2; 3 h of exposure
Protocol: Fresh HepG2 and CHO-K1 cells were seeded at the density of 1 × 10^5 cells/mL into 24-well plates (1 mL/per well). The compounds 13 (a–d) were then added to the medium to final concentrations of 500, 1000 and 2000 µM and incubation continued for 3 h or 24 h. DMSO 10% was used as the negative control, and, BaP (80 µM) for HepG2 and MMC (5 µM) for CHO-K1 were the positive controls. After exposure to the compounds, the cells were incubated for more than 24 h under growth conditions before quantification of the micronuclei and cytotoxicity. The cytogenetic studies were carried out in triplicate as described previously (see [51]). In order to determine the mitotic index and the number of cells with micronuclei, the medium was replaced by a cold methanol-glacial acetic acid (3:1) fixative for 30 min, and the cells then rinsed with distilled water for 2 min and air dried. The fixed cells were stained with 4,6-diamidino-2-phenylindole (DAPI) ([…]) dissolved in McIlvaine buffer (0.1 M citric acid plus 0.2 M Na2HPO4, pH 7.0) for 60 min, washed with McIlvaine buffer for 5 min, briefly rinsed with distilled water and mounted in glycerol. To determine the mitotic index and the number of cells with micronuclei, 1000 cells per well (3000 cells per concentration) were analyzed under a fluorescence microscope. The results for micronuclei were presented as the percentage of cells containing micronuclei in the 3000 cells/concentration group analyzed. Cells that glowed brightly and had homogenous nuclei were considered as having normal phenotypic morphology. Apoptotic nuclei were identified by the condensed chromatin at the periphery of the nuclear membrane or by fragmented nuclear body morphology. Necrotic cells presented chromatin forms with irregularly shaped aggregates, a pyknotic nucleus (shrunken and darkly stained) and cell membrane disruption, with cellular debris spilled into the extracellular milieu. Once again, 3000 cells were counted and the percentage of viable cells was evaluated, discounting apoptotic and necrotic cells. Statistical differences between the groups were analyzed by two-way ANOVA (p < 0.01) and Tukey’s post hoc test.

[8] = test system: trypomastigote forms of T. cruzi (Y strain); assay: Trypanocidal activity on bloodstream trypomastigotes; type: cell-based, Trypanosoma cruzi; details: Trypanosoma cruzi; bloodstream trypomastigotes, Y strain; 24 h at 37 °C
Protocol: as §3

[9] = test system: S. typhimurium TA97, TA98, TA100, TA102 and TA104 strains; assay: Salmonella/microsome assay, overall outcome; details: all strains, −S9 and +S9; summarized outcome
Protocol: The mutagenicity reverse mutation test was carried out to investigate the potential of 13 (a–d) to induce genetic mutation in S. typhimurium TA97, TA98, TA100, TA102 and TA104 strains. The test was carried out according to the pre-incubation method, both in the absence and presence of a metabolic activation system (4% S9 mix, Aroclor-pre-induced, from Moltox Inc., Boone, NC, USA). DMSO 10% served as the negative control while known mutagens were used as the positive control substances. […] A dose-finding test was carried out with and without the metabolic activation system (S9 mix) for each tester strain.
For the assays without metabolic activation, 0.5 mL of 0.1 mol/L sodium-phosphate buffer (pH 7.4) was added, and for the assays in the presence of metabolic activation, 0.5 mL S9 mix was mixed with 0.1 mL culture medium (2 × 10^8 cells/mL) plus 0.1 mL of each compound solutions. The mixtures were incubated in a shaker at 37 °C (pre-incubation). After 30 min pre-incubation under light protection, the mixture was added to and mixed with 2 mL top agar containing 0.05 mmol/L L-histidine and D-biotin for the S. typhimurium strains. Each of these was then spread on a minimum glucose agar plate. After the top agar solidified, the plates were incubated at 37 °C for 60–72 h. Each tester strain was assayed in triplicate, and the number of revertant colonies was counted for each tester strain and treatment group [58].

[10] = Plasmodium falciparum, W2, 24 h
[11] = S. typhimurium TA104 with S9 mix, LC50 (bacterial cytotoxicity) TA104, presence of S9 mix

Row | SMILES | revertant His+ colonies TA98 ([1]; +S9, 3 µM) | revertant His+ colonies TA98 ([1]; +S9, 15 µM) | revertant His+ colonies TA98 ([1]; +S9, 30 µM) | revertant His+ colonies TA98 ([1]; +S9, 150 µM) | revertant His+ colonies TA98 ([1]; +S9, 300 µM) | revertant His+ colonies TA98 ([1]; +S9, 1500 µM) | revertant His+ colonies TA98 ([1]; −S9, 3 µM) | revertant His+ colonies TA98 ([1]; −S9, 15 µM) | revertant His+ colonies TA98 ([1]; −S9, 30 µM) | revertant His+ colonies TA98 ([1]; −S9, 150 µM) | revertant His+ colonies TA98 ([1]; −S9, 300 µM) | revertant His+ colonies TA98 ([1]; −S9, 1500 µM) | Mammalian Cell Genotoxicity [2] | SI [3] | EC50 [3, 10] | Antiplasmodial Activity [3] | Trypanocidal Activity [4] | revertant His+ colonies TA104 ([5]; +S9, 3 µM) | revertant His+ colonies TA104 ([5]; +S9, 15 µM) | revertant His+ colonies TA104 ([5]; +S9, 30 µM) | further results
1 | CC(=O)Nc1ccccc1C(F)(F)C(=O)NCC[C@@H]1C[C@H](CC(=O)OC(C)(C)C)OC(C)(C)O1 [Compound 13a, tert-Butyl 2-((4R,6R)-6-(2-(2-(2-acetamidophenyl)-2,2-difluoroacetamido)ethyl)-2,2-dimethyl-1,3-dioxan-4-yl)acetate] | 25 ± 8 | 25 ± 4 | 26 ± 5 | 27 ± 1 | 33 ± 1 | 36 ± 3 | 24 ± 3 | 29 ± 6 | 31 ± 8 | 32 ± 3 | 52 ± 4 | 61 ± 5 | Yes | Inactive | > 62 µM | No | No | 390 ± 49 | 417 ± 15 | 467 ± 19 | mutagenicity to TA98 ([1]; −S9, at concentrations above 300 µM): significant mutagenicity; also recorded: enhanced the number of revertants; revertant His+ colonies TA104 ([5]; +S9, 150 µM): 330 ± 9; revertant His+ colonies TA104 ([5]; +S9, 300 µM): 268 ± 37; revertant His+ colonies TA104 ([5]; +S9, 1500 µM): Cytotoxic; revertant His+ colonies TA104 ([5]; −S9, 3 µM): 264 ± 27; revertant His+ colonies TA104 ([5]; −S9, 15 µM): 307 ± 18; revertant His+ colonies TA104 ([5]; −S9, 30 µM): 314 ± 26; revertant His+ colonies TA104 ([5]; −S9, 150 µM): 315 ± 36; revertant His+ colonies TA104 ([5]; −S9, 300 µM): 316 ± 33; revertant His+ colonies TA104 ([5]; −S9, 1500 µM): 350 ± 21; CC50 at 30 min [6, 11]: 1280 ± 21.1 µM; cytotoxicity (survival rate) in micronuclei assay [7]: significant cytotoxic effects upon 1000 µM; micronuclei formation (genotoxicity) [7]: did not induce micronuclei formation; also recorded: non-genotoxic; EC50 [8]: > 500 µM; Bacterial Mutagenicity [9]: Yes
2 | CC(=O)Nc1ccc(C)cc1C(F)(F)C(=O)NCC[C@@H]1C[C@H](CC(=O)OC(C)(C)C)OC(C)(C)O1 [Compound 13b, tert-Butyl 2-((4R,6R)-6-(2-(2-(2-acetamido-5-methylphenyl)-2,2-difluoroacetamido)ethyl)-2,2-dimethyl-1,3-dioxan-4-yl)acetate] | 27 ± 5 | 27 ± 1 | 27 ± 5 | 27 ± 5 | 39 ± 1 | 45 ± 4 | 18 ± 2 | 19 ± 3 | 21 ± 5 | 22 ± 2 | 22 ± 2 | 26 ± 4 | Yes | >70 | < 14 µM | Yes | No | 355 ± 12 | 356 ± 14 | 421 ± 67 | EC50 [3]: 14.3 ± 0.2 µM; revertant His+ colonies TA104 ([5]; +S9, 150 µM): 447 ± 45; revertant His+ colonies TA104 ([5]; +S9, 300 µM): 449 ± 18; revertant His+ colonies TA104 ([5]; +S9, 1500 µM): 510 ± 13; revertant His+ colonies TA104 ([5]; −S9, 3 µM): 210 ± 11; revertant His+ colonies TA104 ([5]; −S9, 15 µM): 267 ± 15; revertant His+ colonies TA104 ([5]; −S9, 150 µM): 326 ± 13; revertant His+ colonies TA104 ([5]; −S9, 300 µM): 350 ± 22; revertant His+ colonies TA104 ([5]; −S9, 1500 µM): 400 ± 11; CC50 at 30 min [6, 11]: > 1500 µM; CC50 at 30 min ([6]; S. typhimurium TA104 without S9 mix, pH 7.4, LC50 (bacterial cytotoxicity) TA104, absence of S9 mix): > 1500 µM; cytotoxicity (survival rate) in micronuclei assay [7]: statistical enhancement; also recorded: cytotoxic; micronuclei formation (genotoxicity) [7]: statistical enhancement; also recorded: genotoxic; also recorded: only increased micronucleation in HepG2 cells at >2000 µM; EC50 [8]: > 500 µM; Bacterial Mutagenicity [9]: not mutagenic and no mutagenic potential and No
